In ChEMBL document CHEMBL1201862, “PubChem BioAssay data set” (2004):
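Exposure lasted 48 hours, with cells grown in 96-well plates and compounds tested at five concentrations. At the GI50, growth is halved.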 The source made the active and inactive calls. Rule as the data show it: active = GI50 up to about 1.1 µM and inactive = higher.

Assays:
Assay in all cases: NCI tumour cell line growth inhibition, 48 h
RXF 393 = test system: RXF 393
UACC-62 = test system: UACC-62
SK-MEL-5 = test system: SK-MEL-5
OVCAR-8 = test system: OVCAR-8
Hs-578T = test system: Hs-578T
SF-539 = test system: SF-539
NCI/ADR-RES = test system: NCI/ADR-RES
HOP-62 = test system: HOP-62
A549 = test system: A549
SK-OV-3 = test system: SK-OV-3
HCT-116 = test system: HCT-116
KM12 = test system: KM12
SF-268 = test system: SF-268
HT-29 = test system: HT-29
MDA-N = test system: MDA-N
Malme-3M = test system: Malme-3M
SN12C = test system: SN12C
SK-MEL-2 = test system: SK-MEL-2
NCI-H23 = test system: NCI-H23
ACHN = test system: ACHN

Measured: GI50

Cc1cccc(NC(=S)Nc2ccccc2Cl)n1
inactive: RXF 393 20.7 µM | UACC-62 41 µM | SK-MEL-5 27.9 µM | OVCAR-8 29.6 µM | Hs-578T 38.4 µM | SF-539 32.1 µM | NCI/ADR-RES 49 µM | HOP-62 22.3 µM | A549 47.6 µM | SK-OV-3 25.8 µM | HCT-116 > 100 µM | KM12 25.8 µM | SF-268 28.7 µM | HT-29 > 100 µM | MDA-N > 100 µM | Malme-3M 38 µM | SN12C 51.8 µM | SK-MEL-2 > 100 µM

COC(=O)c1c(C)cccc1/C=C1/Cc2c(C)cccc2C1=O
inactive: RXF 393 25.4 µM | NCI-H23 > 100 µM | UACC-62 > 100 µM | SK-MEL-5 9.93 µM | OVCAR-8 > 100 µM | Hs-578T 32.6 µM | SF-539 > 100 µM | ACHN 86.7 µM | NCI/ADR-RES > 100 µM | HOP-62 > 100 µM | A549 > 100 µM | SK-OV-3 > 100 µM | HCT-116 > 100 µM | KM12 > 100 µM | SF-268 > 100 µM | HT-29 > 100 µM | MDA-N > 100 µM | Malme-3M > 100 µM | SN12C > 100 µM

CC(C)(C)OC(=O)NCC(=O)NC1C/C(=N\O)c2sccc21 (centres undefined)
inactive: RXF 393 > 100 µM | NCI-H23 > 100 µM | UACC-62 > 100 µM | SK-MEL-5 > 100 µM | OVCAR-8 > 100 µM | Hs-578T > 100 µM | SF-539 > 100 µM | NCI/ADR-RES > 100 µM | HOP-62 > 100 µM | A549 > 100 µM | SK-OV-3 > 100 µM | HCT-116 > 100 µM | SF-268 > 100 µM | HT-29 > 100 µM | MDA-N > 100 µM | Malme-3M > 100 µM | SN12C > 100 µM | SK-MEL-2 > 100 µM

O=C(CNc1ccccc1C(=O)O)Nn1cnc2ccc(S(=O)(=O)Nc3ccccc3C(=O)O)cc2c1=O
inactive: NCI-H23 > 100 µM | UACC-62 > 100 µM | OVCAR-8 > 100 µM | Hs-578T > 100 µM | SF-539 > 100 µM | ACHN > 100 µM | NCI/ADR-RES > 100 µM | HOP-62 > 100 µM | A549 > 100 µM | SK-OV-3 > 100 µM | HCT-116 > 100 µM | KM12 > 100 µM | SF-268 > 100 µM | HT-29 > 100 µM | MDA-N > 100 µM | Malme-3M > 100 µM | SN12C > 100 µM | SK-MEL-2 > 100 µM

O=c1c2cccnc2cc(-c2ccccc2)n1CCO
inactive: RXF 393 > 100 µM | NCI-H23 > 100 µM | UACC-62 > 100 µM | SK-MEL-5 > 100 µM | OVCAR-8 > 100 µM | Hs-578T > 100 µM | ACHN > 100 µM | NCI/ADR-RES > 100 µM | HOP-62 > 100 µM | A549 > 100 µM | SK-OV-3 > 100 µM | HCT-116 > 100 µM | KM12 > 100 µM | SF-268 59.2 µM | HT-29 > 100 µM | MDA-N > 100 µM | Malme-3M > 100 µM | SN12C > 100 µM | SK-MEL-2 > 100 µM

CCOC(=O)c1nc2ccccc2nc1NCc1cc(OC)c(OC)c(OC)c1
inactive: RXF 393 14.9 µM | NCI-H23 > 100 µM | UACC-62 36.8 µM | SK-MEL-5 26.9 µM | OVCAR-8 58.1 µM | Hs-578T 42.9 µM | SF-539 > 100 µM | ACHN 43.6 µM | NCI/ADR-RES 15.1 µM | HOP-62 55.1 µM | A549 37.8 µM | SK-OV-3 80.5 µM | HCT-116 36.1 µM | KM12 34.4 µM | SF-268 > 100 µM | HT-29 40.5 µM | MDA-N 14.8 µM | Malme-3M 29.6 µM | SN12C 27.4 µM

S=C1c2ccc(Cl)cc2-n2cnnc2C2CSCN12 (centres undefined)
inactive: RXF 393 > 100 µM | UACC-62 > 100 µM | SK-MEL-5 > 100 µM | OVCAR-8 > 100 µM | Hs-578T > 100 µM | ACHN > 100 µM | NCI/ADR-RES > 100 µM | HOP-62 > 100 µM | A549 > 100 µM | SK-OV-3 > 100 µM | HCT-116 62.5 µM | KM12 > 100 µM | SF-268 > 100 µM | HT-29 > 100 µM | MDA-N 63.1 µM | Malme-3M > 100 µM | SN12C > 100 µM | SK-MEL-2 > 100 µM
